# Data reported in US9340585B2, “Competence stimulating peptide” (INSTITUT NATIONAL DE LA RECHERCHE AGRONOMIQUE, priority 2009, dated 2016).
# Where no end group is shown, it is not given here. The star is where a group is joined. Cam = NC(=O)C*
# How the values were obtained:
# [1] = test system: strain deleted for the papR gene; test: Transformation assay: peptide added to culture of papR-deleted strain in CDM; type: cell-based, S. thermophilus; details: for Competence: peptide stimulates competence, YES/NO
# Procedure: (§1) S. thermophilus cells are grown overnight at 42° C. in CDM. The culture is then diluted in CDM at an OD600 0.05. Sixty minutes after dilution, the competence stimulating peptide (CSP), which is the mature peptide comprising SEQ ID No1 or fragments or derivatives of SEQ ID No1 that allow to induce competence in S. thermophilus, is added to the culture at a final concentration of 1 μM. Ten minutes later, 100 μl of the culture containing the CSP is mixed with 1 μg of DNA and incubated for 2 hours at 28° C. when mixed with a thermosensitive replicative plasmid DNA or 1 hour at 42° C. when mixed with chromosomal DNA or PCR fragments, before being serially diluted and spread on M17lac plates with the appropriate antibiotic.
# The inventors tested the activity of fragments of SEQ ID No1 using a strain deleted for the papR gene using the protocol described in part 8. The inventors thus synthesized different fragments of SEQ ID No1 in order to test their biological activity. Fragments were synthesized as below:
# (§2) To test the biological activity of those fragments, peptides were added to a culture of a strain deleted for the papR gene at a final concentration of 1 μM, 1 hour after the dilution of the culture at an OD600 of 0.05 in a chemical defined medium (CDM). Transformation assays were performed with 100 μl of cells with 1 μg of plasmid and or chromosomal DNA.
# [2] = test system: S. thermophilus strain LMG18311; test: Transformation assay: peptide added to culture of strain LMG18311; type: cell-based
# Procedure: as §1, §2
# (§3) S. thermophilus strain LMG18311 is naturally poorly competent and strain CNRZ1066 is naturally not competent. However, complementation of both strains with a plasmid that overexpresses the papR gene makes them competent. […]
# [3] = test system: S. thermophilus strain CNRZ1066; test: Transformation assay: peptide added to culture of strain CNRZ1066; type: cell-based
# Procedure: as §1, §2, §3
# [4] = Chromosomal transforming DNA 1 μg, peptide 1 μM, fragment comparison
# [5] = Chromosomal transforming DNA, alkylation comparison
substance,measurement,setting,value
LPYFAGCL (Fragment of SEQ ID N07) [SEQ ID N^o12],numbers of transformants obtained with 100 μl of competent cells,[1]; [4],41
IAILPYFAGCL (listed as Streptococcus thermophilus) [SEQ ID N^o7],numbers of transformants obtained with 100 μl of competent cells,[1]; [4],24
same,numbers of transformants obtained with 100 μl of competent cells,[1]; [5],35
same,Competence,[1]; listed as 7,YES
same,Competence,[1]; listed as SEQ ID No7,active competence peptide
same,competence after addition of the peptide to the culture,"[2]; LMG18311, result in words",renders them competent
same,numbers of transformants obtained with 100 μl of competent cells,"[2]; LMG18311, Chromosomal transforming DNA",477
same,competence after addition of the peptide to the culture,"[3]; CNRZ1066, result in words",renders them competent
same,numbers of transformants obtained with 100 μl of competent cells,"[3]; CNRZ1066, Chromosomal transforming DNA",0
IAILPYFAGC*L (IAILPYFAGC(Cam)L; listed as Streptococcus thermophilus) [Alkylated SEQ ID N^o7],numbers of transformants obtained with 100 μl of competent cells,[1]; [5],0
same,numbers of transformants obtained with 100 μl of competent cells,"[1]; Plasmid transforming DNA, alkylation comparison",2
PYFAGCL (Fragment of SEQ ID N07) [SEQ ID N^o13],numbers of transformants obtained with 100 μl of competent cells,[1]; [4],0
same,numbers of transformants obtained with 100 μl of competent cells,"[1]; Plasmid transforming DNA 1 μg, peptide 1 μM, fragment comparison",0
